# According to ChEMBL document CHEMBL1152576, “E-Combretastatin and E-resveratrol structural modifications: antimicrobial and cancer cell growth inhibitory beta-E-nitrostyrenes” (Bioorg Med Chem, 2009):
# pIC50: −log10 of the molar value. The source made the active and inactive calls. No cut-off for these calls is given here.
# Experiments:
# P388 = assay: Cytotoxicity against mouse P388 cells after 48 hrs by sulforhodamine B assay; format: functional; details: for EC50: P388, 48 h, read-out: ED50 (the source's name)
# BXPC-3 = assay: Cytotoxicity against human BxPC3 cells after 48 hrs by sulforhodamine B assay; format: functional
# MCF7 = assay: Cytotoxicity against human MCF7 cells after 48 hrs by sulforhodamine B assay; format: functional
# SF-295 = assay: Cytotoxicity against human SF295 cells after 48 hrs by sulforhodamine B assay; format: functional
# SF-268 = assay: Cytotoxicity against human SF268 cells after 48 hrs by sulforhodamine B assay; format: functional
# NCI-H460 = assay: Cytotoxicity against human NCI-H460 cells after 48 hrs by sulforhodamine B assay; format: functional
# KM-20L2 = assay: Cytotoxicity against human KM20L2 cells after 48 hrs by sulforhodamine B assay; format: functional
# DU-145 = assay: Cytotoxicity against human DU145 cells after 48 hrs by sulforhodamine B assay; format: functional
# SK-MEL-5 = assay: Cytotoxicity against human SK-MEL-5 cells after 48 hrs by sulforhodamine B assay; format: functional
# OVCAR-3 = assay: Cytotoxicity against human OVCAR-3 cells after 48 hrs by sulforhodamine B assay; format: functional
# A498 = assay: Cytotoxicity against human A498 cells after 48 hrs by sulforhodamine B assay; format: functional
# [1] = Inhibition of tubulin polymerization
# Candida albicans [2] = assay: Antimicrobial activity against Candida albicans ATCC 90028 assessed clear zone in inhibition per disk by CLSI disk diffusion susceptibility assay; format: functional
# Cryptococcus neoformans [3] = assay: Antimicrobial activity against Cryptococcus neoformans ATCC 90112 assessed clear zone in inhibition per disk by CLSI disk diffusion susceptibility assay; format: functional
# Staphylococcus aureus [4] = assay: Antimicrobial activity against Staphylococcus aureus ATCC 29213 assessed clear zone in inhibition per disk by CLSI disk diffusion susceptibility assay; format: functional
# Streptococcus pneumoniae [5] = assay: Antimicrobial activity against Streptococcus pneumoniae ATCC 6303 assessed clear zone in inhibition per disk by CLSI disk diffusion susceptibility assay; format: functional
# Enterococcus faecalis [6] = assay: Antimicrobial activity against Enterococcus faecalis ATCC 29212 assessed clear zone in inhibition per disk by CLSI disk diffusion susceptibility assay; format: functional
# Micrococcus luteus [7] = assay: Antimicrobial activity against Micrococcus luteus Presque Isle 456 assessed clear zone in inhibition per disk by CLSI disk diffusion susceptibility assay; format: functional
# [8] = system: Stenotrophomonas maltophilia; assay: Antimicrobial activity against Stenotrophomonas maltophilia ATCC 13637 assessed clear zone in inhibition per disk by CLSI disk diffusion susceptibility assay; format: functional
# Escherichia coli [9] = assay: Antimicrobial activity against Escherichia coli ATCC 25922 assessed clear zone in inhibition per disk by CLSI disk diffusion susceptibility assay; format: functional
# Enterobacter cloacae [10] = assay: Antimicrobial activity against Enterobacter cloacae ATCC 13047 assessed clear zone in inhibition per disk by CLSI disk diffusion susceptibility assay; format: functional
# Neisseria gonorrhoeae [11] = assay: Antimicrobial activity against Neisseria gonorrhoeae ATCC 49226 assessed clear zone of inhibition measured per disk by CLSI disk diffusion susceptibility assay; format: functional
# Candida albicans [12] = assay: Antifungal activity against Candida albicans ATCC 90028 after 48 hrs by broth microdilution susceptibility assay; format: functional; details: ATCC 90028, 48 h
# Cryptococcus neoformans [13] = assay: Antifungal activity against Cryptococcus neoformans ATCC 90112 after 72 hrs by broth microdilution susceptibility assay; format: functional; details: ATCC 90112, 72 h
# Staphylococcus aureus [14] = assay: Antimicrobial activity against Staphylococcus aureus ATCC 29213 by broth microdilution susceptibility assay; format: functional
# Streptococcus pneumoniae [15] = assay: Antimicrobial activity against Streptococcus pneumoniae ATCC 6303 by broth microdilution susceptibility assay; format: functional
# Enterococcus faecalis [16] = assay: Antimicrobial activity against Enterococcus faecalis ATCC 29212 by broth microdilution susceptibility assay; format: functional
# Micrococcus luteus [17] = assay: Antimicrobial activity against Micrococcus luteus Presque Isle 456 by broth microdilution susceptibility assay; format: functional
# [18] = system: Stenotrophomonas maltophilia; assay: Antimicrobial activity against Stenotrophomonas maltophilia ATCC 13637 by broth microdilution susceptibility assay; format: functional
# Escherichia coli [19] = assay: Antimicrobial activity against Escherichia coli ATCC 25922 by broth microdilution susceptibility assay; format: functional
# Enterobacter cloacae [20] = assay: Antimicrobial activity against Enterobacter cloacae ATCC 13047 by broth microdilution susceptibility assay; format: functional
# Neisseria gonorrhoeae [21] = assay: Antimicrobial activity against Neisseria gonorrhoeae ATCC 49226 by broth microdilution susceptibility assay; format: functional
# Candida albicans [22] = assay: Antifungal activity against Candida albicans ATCC 90028 after 24 hrs by broth microdilution susceptibility assay; format: functional; details: ATCC 90028, 24 h
# Cryptococcus neoformans [23] = assay: Antifungal activity against Cryptococcus neoformans ATCC 90112 after 48 hrs by broth microdilution susceptibility assay; format: functional; details: ATCC 90112, 48 h
# Staphylococcus aureus [24] = assay: Antimicrobial activity against Staphylococcus aureus ATCC 29213 after 24 hrs by broth microdilution susceptibility assay; format: functional; details: ATCC 29213, 24 h
# Streptococcus pneumoniae [25] = assay: Antimicrobial activity against Streptococcus pneumoniae ATCC 6303 after 24 hrs by broth microdilution susceptibility assay; format: functional; details: ATCC 6303, 24 h
# Enterococcus faecalis [26] = assay: Antimicrobial activity against Enterococcus faecalis ATCC 29212 after 24 hrs by broth microdilution susceptibility assay; format: functional; details: ATCC 29212, 24 h
# Micrococcus luteus [27] = assay: Antimicrobial activity against Micrococcus luteus Presque Isle 456 after 24 hrs by broth microdilution susceptibility assay; format: functional; details: Presque Isle 456, 24 h
# [28] = system: Stenotrophomonas maltophilia; assay: Antimicrobial activity against Stenotrophomonas maltophilia ATCC 13637 after 24 hrs by broth microdilution susceptibility assay; format: functional; details: ATCC 13637, 24 h
# Escherichia coli [29] = assay: Antimicrobial activity against Escherichia coli ATCC 25922 after 24 hrs by broth microdilution susceptibility assay; format: functional; details: ATCC 25922, 24 h
# Neisseria gonorrhoeae [30] = assay: Antimicrobial activity against Neisseria gonorrhoeae ATCC 49226 after 24 hrs by broth microdilution susceptibility assay; format: functional; details: ATCC 49226, 24 h
structure (smiles),measurement,setting,value
O=[N+]([O-])/C=C/c1ccc2c(c1)OCO2,EC50,P388,2 µg/mL
same,GI50,"BXPC-3; BXPC-3, 48 h",1.7 µg/mL
same,GI50,"MCF7; MCF7, 48 h",0.58 µg/mL
same,GI50,SF-295,inactive
same,GI50,"SF-268; SF-268, 48 h",1.9 µg/mL
same,GI50,"NCI-H460; NCI-H460, 48 h",2 µg/mL
same,GI50,"KM-20L2; KM-20L2, 48 h",1.8 µg/mL
same,GI50,"DU-145; DU-145, 48 h",1.8 µg/mL
same,GI50,SK-MEL-5,inactive
same,GI50,OVCAR-3,inactive
same,GI50,A498,inactive
same,pIC50,[1],5.28
same,MIC,Candida albicans [2],1.56 µg
same,MIC,Cryptococcus neoformans [3],0.78 µg
same,MIC,Staphylococcus aureus [4],6.25 µg
same,MIC,Streptococcus pneumoniae [5],0.78 µg
same,MIC,Enterococcus faecalis [6],6.25 µg
same,MIC,Micrococcus luteus [7],50 µg
same,MIC,[8],6.25 µg
same,MIC,Escherichia coli [9],6.25 µg
same,MIC,Enterobacter cloacae [10],12.5 µg
same,MIC,Neisseria gonorrhoeae [11],<0.78 µg
same,MIC,Candida albicans [12],8 µg/mL
same,MIC,Cryptococcus neoformans [13],8 µg/mL
same,MIC,Staphylococcus aureus [14],32 µg/mL
same,MIC,Streptococcus pneumoniae [15],16 µg/mL
same,MIC,Enterococcus faecalis [16],64 µg/mL
same,MIC,Micrococcus luteus [17],64 µg/mL
same,MIC,[18],64 µg/mL
same,MIC,Escherichia coli [19],64 µg/mL
same,MIC,Enterobacter cloacae [20],> 64 µg/mL
same,MIC,Neisseria gonorrhoeae [21],1 µg/mL
same,MFC,Candida albicans [22],16 µg/mL
same,MFC,Cryptococcus neoformans [23],16 µg/mL
same,MBC,Staphylococcus aureus [24],> 64 µg/mL
same,MBC,Streptococcus pneumoniae [25],32 µg/mL
same,MBC,Enterococcus faecalis [26],> 64 µg/mL
same,MBC,Micrococcus luteus [27],> 64 µg/mL
same,MBC,[28],> 64 µg/mL
same,MBC,Escherichia coli [29],> 64 µg/mL
same,MBC,Neisseria gonorrhoeae [30],2 µg/mL
O=[N+]([O-])/C=C/c1c[nH]c2ccccc12,EC50,P388,3.7 µg/mL
same,GI50,"BXPC-3; BXPC-3, 48 h",1.4 µg/mL
same,GI50,"MCF7; MCF7, 48 h",0.4 µg/mL
same,GI50,SF-295,inactive
same,GI50,"SF-268; SF-268, 48 h",1.9 µg/mL
same,GI50,"NCI-H460; NCI-H460, 48 h",1.6 µg/mL
same,GI50,"KM-20L2; KM-20L2, 48 h",1.4 µg/mL
same,GI50,"DU-145; DU-145, 48 h",1.3 µg/mL
same,GI50,SK-MEL-5,inactive
same,GI50,OVCAR-3,inactive
same,GI50,A498,inactive
same,pIC50,[1],4.82
same,MIC,Candida albicans [2],12.5 µg
same,MIC,Cryptococcus neoformans [3],6.25 µg
same,MIC,Staphylococcus aureus [4],>100 µg
same,MIC,Streptococcus pneumoniae [5],12.5 µg
same,MIC,Enterococcus faecalis [6],>100 µg
same,MIC,Micrococcus luteus [7],50 µg
same,MIC,[8],25 µg
same,MIC,Escherichia coli [9],25 µg
same,MIC,Enterobacter cloacae [10],>100 µg
same,MIC,Neisseria gonorrhoeae [11],3.12 µg
same,MIC,Candida albicans [12],32 µg/mL
same,MIC,Cryptococcus neoformans [13],16 µg/mL
same,MIC,Staphylococcus aureus [14],64 µg/mL
same,MIC,Streptococcus pneumoniae [15],64 µg/mL
same,MIC,Enterococcus faecalis [16],64 µg/mL
same,MIC,Micrococcus luteus [17],64 µg/mL
same,MIC,[18],64 µg/mL
same,MIC,Escherichia coli [19],> 64 µg/mL
same,MIC,Enterobacter cloacae [20],> 64 µg/mL
same,MIC,Neisseria gonorrhoeae [21],8 µg/mL
same,MFC,Candida albicans [22],64 µg/mL
same,MFC,Cryptococcus neoformans [23],32 µg/mL
same,MBC,Staphylococcus aureus [24],> 64 µg/mL
same,MBC,Streptococcus pneumoniae [25],> 64 µg/mL
same,MBC,Enterococcus faecalis [26],> 64 µg/mL
same,MBC,Micrococcus luteus [27],> 64 µg/mL
same,MBC,[28],> 64 µg/mL
same,MBC,Neisseria gonorrhoeae [30],8 µg/mL
COc1cc(/C=C/[N+](=O)[O-])ccc1OCc1ccccc1,EC50,P388,16.6 µg/mL
same,GI50,"BXPC-3; BXPC-3, 48 h",1.7 µg/mL
same,GI50,"MCF7; MCF7, 48 h",0.96 µg/mL
same,GI50,SF-295,inactive
same,GI50,"SF-268; SF-268, 48 h",0.94 µg/mL
same,GI50,"NCI-H460; NCI-H460, 48 h",1.3 µg/mL
same,GI50,"KM-20L2; KM-20L2, 48 h",1.5 µg/mL
same,GI50,"DU-145; DU-145, 48 h",1.3 µg/mL
same,GI50,SK-MEL-5,inactive
same,GI50,OVCAR-3,inactive
same,GI50,A498,inactive
same,pIC50,[1],5.60
same,MIC,Candida albicans [2],>100 µg
same,MIC,Cryptococcus neoformans [3],<0.78 µg
same,MIC,Staphylococcus aureus [4],6.25 µg
same,MIC,Streptococcus pneumoniae [5],12.5 µg
same,MIC,Enterococcus faecalis [6],>100 µg
same,MIC,Micrococcus luteus [7],>100 µg
same,MIC,[8],>100 µg
same,MIC,Escherichia coli [9],>100 µg
same,MIC,Enterobacter cloacae [10],>100 µg
same,MIC,Neisseria gonorrhoeae [11],<0.78 µg
same,MIC,Candida albicans [12],> 64 µg/mL
same,MIC,Cryptococcus neoformans [13],32 µg/mL
same,MIC,Staphylococcus aureus [14],4 µg/mL
same,MIC,Streptococcus pneumoniae [15],16 µg/mL
same,MIC,Enterococcus faecalis [16],> 64 µg/mL
same,MIC,Micrococcus luteus [17],4 µg/mL
same,MIC,[18],> 64 µg/mL
same,MIC,Escherichia coli [19],> 64 µg/mL
same,MIC,Enterobacter cloacae [20],> 64 µg/mL
same,MIC,Neisseria gonorrhoeae [21],1 µg/mL
same,MFC,Cryptococcus neoformans [23],64 µg/mL
same,MBC,Staphylococcus aureus [24],> 16 µg/mL
same,MBC,Streptococcus pneumoniae [25],32 µg/mL
same,MBC,Neisseria gonorrhoeae [30],2 µg/mL
COc1ccc(/C=C/[N+](=O)[O-])cc1O,ED50,P388,inactive
same,GI50,BXPC-3,inactive
same,GI50,MCF7,inactive
same,GI50,SF-295,inactive
same,GI50,SF-268,inactive
same,GI50,NCI-H460,inactive
same,GI50,KM-20L2,inactive
same,GI50,DU-145,inactive
same,GI50,SK-MEL-5,inactive
same,GI50,OVCAR-3,inactive
same,GI50,A498,inactive
same,pIC50,[1],5.09
same,MIC,Candida albicans [2],3.12 µg
same,MIC,Cryptococcus neoformans [3],0.78 µg
same,MIC,Staphylococcus aureus [4],50 µg
same,MIC,Streptococcus pneumoniae [5],1.56 µg
same,MIC,Enterococcus faecalis [6],>100 µg
same,MIC,Micrococcus luteus [7],>100 µg
same,MIC,[8],25 µg
same,MIC,Escherichia coli [9],25 µg
same,MIC,Enterobacter cloacae [10],25 µg
same,MIC,Neisseria gonorrhoeae [11],<0.78 µg
same,MIC,Candida albicans [12],16 µg/mL
same,MIC,Cryptococcus neoformans [13],32 µg/mL
same,MIC,Staphylococcus aureus [14],> 64 µg/mL
same,MIC,Streptococcus pneumoniae [15],64 µg/mL
same,MIC,Enterococcus faecalis [16],> 64 µg/mL
same,MIC,Micrococcus luteus [17],> 64 µg/mL
same,MIC,[18],> 64 µg/mL
same,MIC,Escherichia coli [19],> 64 µg/mL
same,MIC,Enterobacter cloacae [20],> 64 µg/mL
same,MIC,Neisseria gonorrhoeae [21],4 µg/mL
same,MFC,Candida albicans [22],32 µg/mL
same,MFC,Cryptococcus neoformans [23],32 µg/mL
same,MBC,Streptococcus pneumoniae [25],> 64 µg/mL
same,MBC,Neisseria gonorrhoeae [30],4 µg/mL
